Assay results reported in patent US20130237444A1, “GBM MOLECULAR CONTEXTS ASSOCIATED WITH PATIENT SURVIVAL” (Translational Genomics Research Institute, priority 2012, published 2013).

How the values were obtained:
[1] = tested on: Classical-mapped xenograft models; test: Survival of drug-treated GBM mouse xenografts vs control, Classical-mapped; conditions: for frequency of xenograft models with survival difference NS (statistically Not Significant) / frequency of xenograft models with significantly longer survival than control (treatment-sensitive) / frequency of xenograft models with significantly shorter survival than control (treatment-resistant): Classical subtype, total 2 xenografts; for frequency of xenograft models with survival difference NS (statistically Not Significant): Cox regression; for frequency of xenograft models with significantly longer survival than control (treatment-sensitive) / frequency of xenograft models with significantly shorter survival than control (treatment-resistant): Cox regression p-value threshold 0.05
Protocol: (§1) Forty GBM mouse xenografts were used. […] These xenografts were also mapped to the four molecular subtypes: proneural, neural, classical, and mesenchymal.
(§2) Characterizing drug responsiveness for GBM subtypes using the mapped xenografts: Out of 40 xenograft models, 21 models were treated with 4 different treatments and their survival rates were compared against control groups.

[2] = tested on: Proneural-mapped xenografts; test: Survival of drug-treated GBM mouse xenografts vs control, Proneural-mapped; format: in vivo; conditions: Proneural subtype, total 2 xenografts; for frequency of xenograft models with survival difference NS (statistically Not Significant): Cox regression; for frequency of xenograft models with significantly longer survival than control (treatment-sensitive) / frequency of xenograft models with significantly shorter survival than control (treatment-resistant): Cox regression p-value threshold 0.05
Protocol: as §1, §2

[3] = tested on: Mesenchymal-mapped xenograft models; test: Survival of drug-treated GBM mouse xenografts vs control, Mesenchymal-mapped; conditions: for frequency of xenograft models with survival difference NS (statistically Not Significant) / frequency of xenograft models with significantly longer survival than control (treatment-sensitive) / frequency of xenograft models with significantly shorter survival than control (treatment-resistant): Mesenchymal subtype, total 4 xenografts; for frequency of xenograft models with survival difference NS (statistically Not Significant): Cox regression; for frequency of xenograft models with significantly longer survival than control (treatment-sensitive) / frequency of xenograft models with significantly shorter survival than control (treatment-resistant): Cox regression p-value threshold 0.05; for subtype-specific drug response (sensitivity or resistance): Mesenchymal-mapped xenograft models, survival analysis
Protocol: as §1, §2

[4] = tested on: Neural-mapped xenograft models; test: Survival of drug-treated GBM mouse xenografts vs control, Neural-mapped; format: in vivo; conditions: Neural subtype, total 3 xenografts; for frequency of xenograft models with survival difference NS (statistically Not Significant): Cox regression; for frequency of xenograft models with significantly longer survival than control (treatment-sensitive) / frequency of xenograft models with significantly shorter survival than control (treatment-resistant): Cox regression p-value threshold 0.05
Protocol: as §1, §2

Structure (SMILES)	frequency of xenograft models with survival difference NS (statistically Not Significant) [1]	frequency of xenograft models with significantly longer survival than control (treatment-sensitive) [1]	frequency of xenograft models with significantly shorter survival than control (treatment-resistant) [1]	subtype-specific drug response (sensitivity or resistance) ([1]; Classical-mapped xenograft models, survival analysis)	frequency of xenograft models with survival difference NS (statistically Not Significant) [2]	frequency of xenograft models with significantly longer survival than control (treatment-sensitive) [2]	frequency of xenograft models with significantly shorter survival than control (treatment-resistant) [2]	frequency of xenograft models with survival difference NS (statistically Not Significant) [3]	frequency of xenograft models with significantly longer survival than control (treatment-sensitive) [3]	frequency of xenograft models with significantly shorter survival than control (treatment-resistant) [3]	subtype-specific drug response (sensitivity or resistance) [3]	frequency of xenograft models with survival difference NS (statistically Not Significant) [4]	frequency of xenograft models with significantly longer survival than control (treatment-sensitive) [4]	frequency of xenograft models with significantly shorter survival than control (treatment-resistant) [4]
CNC(=O)c1cc(Oc2ccc(NC(=O)Nc3ccc(Cl)c(C(F)(F)F)c3)cc2)ccn1 [Sorafenib, sorafenib]	1	0	1	resistance	1	1	0	1	1	2	resistance	3	0	0
Cn1nnc2c(C(N)=O)ncn2c1=O [TMZ, temozolomide]	1	1	0	–	1	1	0	2	2	0	–	2	1	0
Cn1c(=O)n(-c2ccc(C(C)(C)C#N)cc2)c2c3cc(-c4cnc5ccccc5c4)ccc3ncc21 [BEZ235]	2	0	0	–	1	1	0	3	0	1	resistance	3	0	0
